Common to all, as to type: cell-based
Test [1] concerns HNFs. Briefly: Comparative collagen I synthesis by fibroblasts, ELISA. The settings on record: 3 days. How it is done: HNFs were grown in 24-well plates for 24 hours. The cells were placed in contact or not with test products at different concentrations for 3 days. The collagen synthesis was evaluated by ELISA assay on the culture supernatant and the result was reduced to the number of cells.
(In general: An ELISA detects its analyte on a solid surface through an enzyme-linked reagent.)

The test system of test [2] is HNFs. As to the kind of experiment: Comparative elastin synthesis by fibroblasts, ELISA. The settings on record: 12.5 ppm; 3 days.
In another test the test system is FHNs. As to the kind of experiment: Comparative collagen I synthesis by fibroblasts, IMF. The following applies: 6 days. The protocol:
FHNs were grown in 24-well plates for 24 hours. The cells were placed in contact with test products (or their excipient) at different concentrations for 6 days. The collagen I produced by the cells was then quantified by immunofluorescence on the fixed mats, and the result was then reduced to the number of cells.

As for “Cyclo(-Met-Leu-Ile-Pro-Pro-Phe-Phe-Val-Ile) (MLIPPFFVI; cyclic; Synthetic peptide or Linum usitatissimum; (1)..(1) M can be oxidized into sulfoxide or sulfone; (1)..(9) Cyclic peptide) [Linusorb B2]”, the “Collagen I production (ELISA method), comparison” value is reported as “+36.2%; p <0.01” in the test with HNFs [1] (10 ppm) and “+39.2%; p <0.01” with HNFs [1] (15 ppm). Besides, the “Production of elastin (ELISA method), comparison” value in the test with HNFs [2] is listed as “+43%; p <0.05”. The “Production of collagen I (IMF method), comparison” value with FHNs (5 ppm) is given as “+34.2; dns”; in the test with FHNs (10 ppm), “+41.8; p <0.01”.

With cyclo(ILVPPFFLI) [Linusorb B3], the “Collagen I production (ELISA method), comparison” value in the test on HNFs [1] (10 ppm) is −0.4%; nds; in the test with HNFs [1] (15 ppm), “+62.6%; p <0.01”. Further, in the test with HNFs [2], the “Production of elastin (ELISA method), comparison” value is on record as “+58%; p <0.05”. In addition, the “Production of collagen I (IMF method), comparison” value is reported as “+111.1; p <0.01” with FHNs (5 ppm) and “+121.7; p <0.01” in the test on FHNs (10 ppm).

The values above are taken from US20210052480A1, “USE OF CYCLIC PEPTIDES IN COSMETIC” (Sederma, priority 2018, published 2021).
